# Source: patent US20230235286A1, “MRNA TRANSFECTION OF IMMUNE CELLS” (Carisma Therapeutics Inc., priority 2020, published 2023)
# Legend:
# [1] = tested on: human macrophages; test: M1/M2 marker expression on CAR macrophages by flow cytometry; format: cell-based; details: mRNA transfected CAR macrophages
# Source text: IFN containing media was washed off after the indicated time. IFN-primed CAR macrophages were used for further analysis.
# (§1) M1/M2 markers on primary human macrophages were detected with the following panel: Anti-CD11B PE (Biolegend, 301306), Anti-CD80 BV605 (Biolegend, 305225), Anti-CD86 BV711 (Biolegend, 305440), Anti CD206 BV421 (Biolegend, 321126), Anti CD163 APC-CY7 (Biolegend, 333622), anti HLA-DR BV785 (Biolegend, 307642), Anti HLA ABC PE/CY7 (Biolegend, 311430) and Live/Dead Fixable Aqua Dead Cell Stain Kit. Cytokine production (IL12, IFN-γ, TNF-α, IL6, IL8, IL1b, MCP-1, IL10, IL4, IL13, and other human cytokines) was evaluated in supernatant collected from macrophages (control or CAR) treated as described below using the MSD instrument per manufacturers recommendations (Meso Scale Discovery). In some cases, macrophages were co-cultured with antigen-bearing target cells at indicated effector to target ratios.
# (§2) Human macrophages were electroporated with HER2 CAR mRNA comprising m6AGCap1 and PsU modifications. Cells were cultured with cytokines that induce an M1 phenotype such as IFN-alpha, IFN-beta, IFN-gamma, IFN-gamma plus lipopolysaccharide (LPS), TNF-alpha, IL-6 or a STING ligand (STING-L) for up to 48 hours and then cytokines were washed off and fresh media was added. CAR expression and M1 marker expression were measured on days 2 and 7 after transfection. Fluorescent labeled HER2+ breast cancer cells (CRL2351) were co-cultured with HER2 CAR macrophages two days after the macrophages were transfected. Cancer cell growth was monitored via its fluorescence on an Incucyte live imaging microscope every four hours. The Effector (CAR macrophage) to Target (cancer cell) ratio was 5:1.
# Human macrophages were electroporated with 300 nM CAR mRNA comprising m6AGCap1 and PsU modifications. Cells were cultured with 20 ng/mL IFNs for 24 hours and then the cells were washed to remove cytokines. CAR expression was detected by Flow Cytometry (Attune) on day 2 after transfection. Cells were then co-cultured with a Nuc-Light labeled, HER2+ breast cancer cell line (CRL2351) at the Effector to Target ratio of 3:1. Cancer cell growth was monitored via its fluorescence on an Incucyte live imaging microscope. CAR expression and M1 markers in macrophages were detected by Flow Cytometry (Attune) on day 7 after transfection.
# [2] = tested on: human macrophages; test: Cytokine secretion of CAR macrophages co-cultured with HER2+ breast cancer cells (MSD); format: cell-based; details: supernatant 48 hours after co-culture, E:T 3:1
# Source text: as §1
# Human macrophages were electroporated with 150 nM HER2 CAR mRNA comprising m6AGCap1 and PsU modifications. HER2+ breast cancer cells (CRL2351) were co-cultured with CAR macrophages after the macrophages were transfected with the CAR mRNA at an Effector (CAR macrophage) to Target (cancer cell) ratio of 3:1. Supernatant was collected 48 hours after the cancer cells and macrophages were co-cultured and cytokine levels were measured using a Meso Scale Discovery (MSD) instrument.
# [3] = tested on: human macrophages; test: CAR expression on macrophages by flow cytometry; format: cell-based; details: two days after transfection, 20 ng/mL IFNs for 24 hours
# [4] = tested on: human macrophages; test: mCherry expression in transfected macrophages with IFN-γ, sunitinib or ABCE1 (Incucyte); format: cell-based; details: cultured one day with different doses of IFN-γ
# Method: The transfection efficiency, persistence of expression, and intensity of expression of the fluorescent reporter gene mCherry in human monocytes or macrophages was evaluated using real time live microscopy on the Incucyte (Sartorius) for the indicated period of time.
# Macrophages were treated with 0-10 µM sunitinib (an RNAse-L inhibitor) for 2 hours prior to mRNA electroporation or transfection. The level of expression and persistence of expression of the encoded transgene was assessed using methods described above.
# Human macrophages were transfected with mCherry mRNA comprising m6AGCap1 and PsU or N1mPsU modifications and were then cultured for one day with different doses of IFN-γ. mCherry expression was monitored on an Incucyte live imaging microscope.
# In order to determine whether an RNaseL inhibitor could rescue IFN-γ-induced instability of transfected mRNA, human macrophages were treated with 1 µM sunitinib (an RNaseL inhibitor) two hours prior to the transfection of mCherry mRNA comprising m6AGCap1 and PsU modifications. Transfected cells were then cultured for one day with different dosages of IFN-γ. mCherry expression was monitored on an Incucyte live imaging microscope.
# The effect of another RNaseL inhibitor (RLI or ABCE1) was also tested to further validate the concept. […]
# [5] = tested on: human macrophages; test: Viability of macrophages electroporated or transfected with CAR mRNA (FACS); format: cell-based; details: two days after transfection, 20 ng/mL IFNs for 24 hours
# Method: as §2, with “The Effector (CAR macrophage) to Target (cancer cell) ratio was 5:1.” left out
# Five different mRNA modifications were also tested to determine if interferon treatment differentially affected macrophages transfected with mRNA comprising different modifications. […] CAR expression and M1 markers were detected by Flow Cytometry (Attune) on day four after electroporation. […] Cancer cell growth was monitored via its fluorescence on an Incucyte live imaging microscope every four hours.
# Human macrophages were electroporated with 300 nM CAR mRNA comprising m6AGCap1 and PsU modifications. […] CAR expression was detected by Flow Cytometry (Attune) on day 2 after transfection. […] Cancer cell growth was monitored via its fluorescence on an Incucyte live imaging microscope. […]
# [6] = tested on: CRL-2351 cells expressing nuclear GFP; test: Tumor killing by macrophages and CAR macrophages primed on plates coated with CD40L, 4-1BB or 4-1BBL; format: cell-based, human; details: plate-coated protein
# Method: (§3) To generate Her2-Zeta CAR expressing macrophages, primary human macrophages were suspended in EP buffer (MaxCyte) containing 300 nM mRNA (TriLink) at a concentration of 90×10^6 cells/mL. 100 µL of cell mixture was added to an electroporation cassette (OC 100x2; MaxCyte) and electroporated using the Experimental T cell 1 setting. Cells were removed from the cassette, plated in 3 mL of TexMACS media (Miltenyi Biotech) containing 20% FBS (Gibco) on UpCell plates (Thermo Scientific), and incubated overnight at 37° C. and 5% CO2.
# (§4) Recombinant CD40 ligand (Peprotech), 4-1BB ligand (Enzo Life Sciences), and 4-1BB receptor (Peprotech) were re-suspended in molecular grade water to a stock concentration of 100 µg/mL. Stock solution was then used to create working solutions in PBS ranging from 2 -0.002 µg/mL. 100 µL of working solution was added to wells in a 96-well plate and left at room temperature for 4 hours.
# Plates were removed from the incubator and left at room temperature for 30 minutes. Cells were detached from plate, counted using the NC-200 automated cell counter (Chemomtech), and re-suspended in TexMACS media with 10% FBS. […] Cell lysis was detected using the Incucyte (Essen Bioscience). Tumor cell death was calculated by integrated GFP intensity per well relative to time 0.
# [7] = tested on: primary human macrophages; test: M1 and M2 marker expression after priming with CD40L, 4-1BB or 4-1BBL; format: cell-based; details: macrophages transfected with CAR mRNA, 3 days
# Method: as §3, §4
# For detection of cell surface proteins, macrophages were plated onto wells coated with agonist molecules in a final volume of 200 µL TexMACS media + 10% FBS + 10 ng/mL GM-CSF and incubated for 3 days at 37° C. and 5% CO2. Cells were incubated in 300 µL Accutase (Sigma) for 30 min and transferred to 96-well round bottom plate for staining. Cells were incubated in FACS buffer containing 20 µg/mL Her2-His for 20 min at RT, followed by incubation in Human TruStain FcX for 10 min at RT. […]
Molecule,M1 phenotype based on CD86 expression [1],M2 markers based on CD163 expression [1],cytokine secretion [2],also measured
IFN-α,induction of an M1 phenotype,reduction of M2 markers,"increased secretion of the cytokines IL-6, IL-8 and TNFα",
IFN-γ: recombinant human IFN-γ (peprotech),induction of an M1 phenotype,reduction of M2 markers,"increased secretion of the cytokines IL-6, IL-8 and TNFα",CAR expression [3]: very high except in macrophages that had been treated with IFN-γ; mCherry mRNA expression [4]: reduced mCherry mRNA expression
"IFN-γ: recombinant human IFN-γ (peprotech) (protein, UniProt P01579 24-161, looked up) Interferon gamma: QDPYVKEAENLKKYFNAGHSDVADNGTLFLGILKNWKEESDRKIMQSQIVSFYFKLFKNFKDDQSIQKSVETIKEDMNVKFFNSNKKKRDDFEKLTNYSVTDLNVQRKAIHELIQVMAELSPAAKTGKRKRSQMLFRG",,,,CAR macrophage viability [5]: very high except in macrophages that had been treated with IFN-γ
"CD40L: Recombinant CD40 ligand (Peprotech) (protein, UniProt P29965 113-261, looked up) CD40 ligand, soluble form: MQKGDQNPQIAAHVISEASSKTTSVLQWAEKGYYTMSNNLVTLENGKQLTVKRQGLYYIYAQVTFCSNREASSQAPFIASLCLKSPGRFERILLRAANTHSSAKPCGQQSIHLGGVFELQPGASVFVNVTDPSQVSHGTGFTSFGLLKL",,,,tumor killing ability of macrophages and CAR macrophages [6]: significantly improved the tumor killing ability; M1 phenotype (M1 and M2 markers) [7]: induced an M1 phenotype
